Among the data in PubChem BioAssay AID624436 (The Scripps Research Institute Molecular Screening Center, 2012) are inhibition values, retold here.

Calls of active or inactive are those of the source.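 The calls were made as follows: active = no compound was called active, only the inactive limit is stated; inactive = inhibition below 30% at 50 µM.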

This test has as its target Serine/threonine-protein phosphatase PP1-alpha catalytic subunit (Homo sapiens) (UniProt P62136). Description: inhibitors of PP1 catalytic subunit activity – biochemical, OMFP substrate, fluorescence, powder samples, round 5, selectivity assay for PP5 inhibitor project, late-stage follow-up (AID 624436). Particulars: purified PP1alpha, OMFP dephosphorylation fluorescence; at 50 µM; stronger effect = higher value.

Serine/threonine-protein phosphatase PP1-alpha catalytic subunit (Homo sapiens), sequence (P62136 whole entry, looked up): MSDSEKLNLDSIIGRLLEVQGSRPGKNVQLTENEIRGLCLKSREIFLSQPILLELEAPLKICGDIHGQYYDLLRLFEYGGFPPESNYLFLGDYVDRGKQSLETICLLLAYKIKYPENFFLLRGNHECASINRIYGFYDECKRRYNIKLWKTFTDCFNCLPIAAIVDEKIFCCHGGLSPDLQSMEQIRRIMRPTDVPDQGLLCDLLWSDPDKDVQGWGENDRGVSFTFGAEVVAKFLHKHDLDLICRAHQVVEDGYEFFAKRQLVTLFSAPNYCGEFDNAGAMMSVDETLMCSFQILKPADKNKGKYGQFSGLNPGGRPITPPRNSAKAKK

With `Cc1ccccc1-c1n[nH]nc1C(=O)O`, the inhibition is 10.4% (inactive).
For `O=C(O)c1n[nH]nc1-c1ccccc1C(F)(F)F`, the inhibition was 7% (inactive).
In the case of `O=C(O)c1[nH]ccc1-c1ccccc1`, the inhibition was 4.43% (inactive).
The same measure for `O=C(O)c1n[nH]nc1-c1ccccn1`: 8.42% (inactive).
With `O=C(O)c1n[nH]nc1-c1ccccc1-c1ccccc1`, the inhibition is 0.415% (inactive).
`CC(C)Oc1ccccc1-c1n[nH]nc1C(=O)O`: the inhibition was 9.97% (inactive).
For `CC(C)c1ccccc1-c1n[nH]nc1C(=O)O`, the inhibition was 3.75% (inactive).
The same measure for `CCc1ccccc1-c1n[nH]nc1C(=O)O`: 2.41% (inactive); for `Cc1cccc(C)c1-c1n[nH]nc1C(=O)O`: 6.84% (inactive).
For the compound `O=C(O)c1n[nH]nc1-c1cccnc1`, the inhibition was 1.43% (inactive).
The value for `CCOc1ccccc1-c1n[nH]nc1C(=O)O` was 15.5% (inactive).

The term inhibition denotes how much of the control response was suppressed.
